Laboratory results: BindingDB's records for doi:10.7270/Q2W957K6 (Pcmd, 2008)
Counter-ions that a name gives are not always drawn.

Target: Coagulation factor XI (Homo sapiens, UniProt P03951)
Experiment: human FXIa inhibitor potency, dose response, biochemical (AID 679)

Coagulation factor XI, sequence (P03951 19-387 limits assumed): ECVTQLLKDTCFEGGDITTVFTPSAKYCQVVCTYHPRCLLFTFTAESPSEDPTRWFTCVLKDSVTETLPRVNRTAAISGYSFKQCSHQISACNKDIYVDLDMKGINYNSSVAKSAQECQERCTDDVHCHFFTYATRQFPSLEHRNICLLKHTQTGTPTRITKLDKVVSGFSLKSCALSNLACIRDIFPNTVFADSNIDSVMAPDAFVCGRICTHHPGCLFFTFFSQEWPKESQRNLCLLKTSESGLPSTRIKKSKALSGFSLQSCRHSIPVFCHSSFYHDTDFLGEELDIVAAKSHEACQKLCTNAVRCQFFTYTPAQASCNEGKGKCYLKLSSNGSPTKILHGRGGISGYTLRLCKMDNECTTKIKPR
Coagulation factor XI, sequence (P03951 388-625 limits assumed): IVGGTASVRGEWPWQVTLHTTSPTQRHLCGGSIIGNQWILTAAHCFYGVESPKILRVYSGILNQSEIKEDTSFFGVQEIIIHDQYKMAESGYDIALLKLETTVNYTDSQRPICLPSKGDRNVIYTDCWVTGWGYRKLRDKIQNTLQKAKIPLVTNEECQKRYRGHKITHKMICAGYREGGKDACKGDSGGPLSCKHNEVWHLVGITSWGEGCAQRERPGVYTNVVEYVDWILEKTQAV

| Compound | IC50 |
| --- | --- |
| O=c1nc(-c2ccccc2)c2cc(Cl)ccc2[nH]1 | > 50 µM |
| O=S(=O)(Nc1cccc2nsnc12)c1ccccc1 | 9.3 µM |
| COc1ccc(S(=O)(=O)N2CCC(C(=O)N3CCc4ccccc4C3)CC2)cc1Cl | 6.26 µM |
| COc1ccc(Cn2nnnc2C(c2ccccc2Cl)N2CCC(C(N)=O)CC2)cc1 (stereo not drawn) | > 50 µM |
| O=C(NC(C(=O)c1ccccc1)n1c(=O)cc[nH]c1=S)c1ccccc1 (stereo not drawn) | > 50 µM |
| CNCCCc1ccccc1 | > 50 µM |
| COc1ccc(CC(=O)NCc2ccc3c(c2)OCO3)cc1 | > 50 µM |
| Cc1ccc(NC(=O)CCn2cccc2)cc1 | > 50 µM |
| CCCC1CCc2c(sc(N)c2C(N)=O)C1 (stereo not drawn) | > 50 µM |
| CCN(CC)CCNC(=O)C(C)c1nn(C)c(=O)c2ccccc12 (stereo not drawn) | > 50 µM |
| N#Cc1cc2c(nc1SCC(=O)Nc1sc3c(c1C#N)CCC3)CCC2 | > 50 µM |
| OCCCn1c(-c2ccccc2)nc(=S)c2c1CCCC2 | > 50 µM |
| O=C(CCSc1nnc2ccc3ccccc3n12)Nc1ccc(F)cc1 | > 50 µM |
| N#Cc1ccc(NC(=O)COC(=O)CNC(=O)C2CCCCC2)cc1 | > 50 µM |
| O=C(NCc1ccccc1)C1CCCN(S(=O)(=O)c2cccc3nonc23)C1 (stereo not drawn) [1-(2,1,3-benzoxadiazol-4-ylsulfonyl)-N-benzylpiperidine-3-carboxamide] | > 50 µM |
| Cc1ccc(C(=O)n2nc(-c3cccnc3)nc2N)cc1 [1-(4-methylbenzoyl)-3-(3-pyridinyl)-1H-1,2,4-triazol-5-amine] | > 50 µM |
| O=C(c1cn(-c2ccccc2)nc1-c1ccncc1)n1nnc2ccccc21 [1-{[1-phenyl-3-(4-pyridinyl)-1H-pyrazol-4-yl]carbonyl}-1H-1,2,3-benzotriazole] | 0.707 µM |
| CCn1nc(CC(=O)Nc2nnc(CC(=O)N3CCCC3)s2)c2ccccc2c1=O [2-(3-ethyl-4-oxo-1-phthalazinyl)-N-[5-[2-oxo-2-(1-pyrrolidinyl)ethyl]-1,3,4-thiadiazol-2-yl]acetamide] | > 50 µM |
| Cn1c(SCC(=O)NC2CCCCC2)nnc1-c1cccc(N)c1 [2-[5-(3-Amino-phenyl)-4-methyl-4H-[1,2,4]triazol-3-ylsulfanyl]-N-cyclohexyl-acetamide] | > 50 µM |
| CCC(CO)NCc1ccc(OC2CCCC2)cc1 (stereo not drawn) [2-[(4-cyclopentyloxyphenyl)methylamino]butan-1-ol;hydrochloride] | > 50 µM |
| Cc1ccccc1C(=O)N=c1sccn1C [2-methyl-N-(3-methyl-1,3-thiazol-2-ylidene)benzamide] | > 50 µM |
| O=c1c(-c2cc3ccccc3o2)[n+]([O-])c2ccccc2n1OCc1ccccn1 [3-(1-benzofuran-2-yl)-1-(2-pyridinylmethoxy)-2(1H)-quinoxalinone 4-oxide] | > 50 µM |
| CCCc1nc2ccccc2c(=O)n1-c1ccc(OC)cc1 [3-(4-Methoxy-phenyl)-2-propyl-3H-quinazolin-4-one] | > 50 µM |
| O=c1cccc2n1CC1CC2CN(S(=O)(=O)c2ccccc2)C1 (stereo not drawn) [3-Benzenesulfonyl-1,2,3,4,5,6-hexahydro-1,5-methano-pyrido[1,2-a][1,5]diazocin-8-one] | > 50 µM |
| COc1cc(OC)cc(-c2nnc(SCc3cccc(C(=O)O)c3)o2)c1 [3-[[5-(3,5-dimethoxyphenyl)-1,3,4-oxadiazol-2-yl]sulfanylmethyl]benzoic acid] | > 50 µM |

| Compound | IC50 |
| --- | --- |
| O=C(CCCN1C(=O)c2ccccc2C1=O)NCC1CCCO1 (stereo not drawn) [4-[1,3-bis(oxidanylidene)isoindol-2-yl]-N-(oxolan-2-ylmethyl)butanamide] | 14.6 µM |
| COc1cc(OC)c2c(N)c(C#N)c(C(F)(F)C(F)(F)F)nc2c1 [4-azanyl-5,7-dimethoxy-2-[1,1,2,2,2-pentakis(fluoranyl)ethyl]quinoline-3-carbonitrile] | > 50 µM |
| O=C(Nc1ccccc1C(=O)N1CCOCC1)c1ccc(F)cc1 [4-fluoro-N-[2-[4-morpholinyl(oxo)methyl]phenyl]benzamide] | 21.4 µM |
| COc1ccc(OCCSc2nc[nH]n2)cc1 [5-[2-(4-methoxyphenoxy)ethylsulfanyl]-1H-1,2,4-triazole] | > 50 µM |
| Cc1cc(=O)[nH]c(-n2[nH]c(C)cc2=O)n1 [6-methyl-2-(3-methyl-5-oxo-2,5-dihydro-1H-pyrazol-1-yl)-4(3H)-pyrimidinone] | > 50 µM |
| COc1ccc2c(=O)cc(-c3ccccc3)n(C)c2c1 [7-methoxy-1-methyl-2-phenyl-4-quinolinone] | > 50 µM |
| CCOc1cccc2cc(C(N)=O)/c(=N/Cc3ccccc3)oc12 [8-ethoxy-2-(phenylmethyl)imino-chromene-3-carboxamide] | > 50 µM |
| CCc1ccc(CC2SC(=C(C#N)C(C)=O)NC2=O)cc1 (stereo not drawn) [(2E)-2-[5-[(4-ethylphenyl)methyl]-4-oxo-2-thiazolidinylidene]-3-oxobutanenitrile] | > 50 µM |
| CC(C)c1nc2ccc(NC(=O)C3CCCCC3)cc2[nH]1 [Cyclohexanecarboxylic acid (2-isopropyl-1H-benzoimidazol-5-yl)-amide] | > 50 µM |
| O=S(=O)(Cc1ccccc1)N1CCC(c2nc(-c3cccs3)no2)CC1 [MLS000027341] | > 50 µM |
| Cc1c(O)ccc(C(=O)CN2C(=O)c3ccccc3C2=O)c1O [MLS000050535] | > 50 µM |
| CCOC(=O)c1c(C)n(Cc2ccccc2)c2ccc(OCC(O)Cn3nc(C)cc3C)cc12 (stereo not drawn) [MLS000121399] | > 50 µM |
| COc1cccc(C(=O)N(Cc2ccccc2)Cc2cc3cc4c(cc3nc2O)OCCO4)c1 [MLS000123157] | 10.4 µM |
| CCOc1ccc(S(=O)(=O)NCc2ccc(OC)cc2)c2cccnc12 [MLS000521584] | > 50 µM |
| O=C(Oc1ccc2c(=O)c(Cl)coc2c1)c1cccnc1 [MLS000523505] | > 50 µM |
| Cc1ccc(C(=O)n2nnc3ccccc32)cc1 [MLS000527467] | 2.39 µM |
| CCC1(c2ccccc2)C(=O)N(C)C(=O)N(C)C1=O [MLS000532164] | > 50 µM |
| CC1=C(C(=O)OC(C)C)C(c2coc3ccccc3c2=O)C2C(=O)CCCC2=N1 (stereo not drawn) [MLS000533594] | > 50 µM |
| C=CCn1c(=O)c2c(nc(Br)n2Cc2ccccc2Cl)n(C)c1=O [MLS000555959] | 0.638 µM |
| Cc1c(NC(=O)c2cc3ccccc3o2)c(=O)n(-c2ccccc2)n1C [MLS000556522] | > 50 µM |
| CCOc1cc(S(=O)(=O)N(Cc2ccccc2)Cc2ccccc2)c(OCC)cc1-n1cnnn1 [N,N-Dibenzyl-2,5-diethoxy-4-tetrazol-1-yl-benzenesulfonamide] | > 50 µM |
| Cn1nnnc1SCC(=O)N(C1CCCCC1)C1CCCCC1 [N,N-dicyclohexyl-2-[(1-methyl-5-tetrazolyl)thio]acetamide] | > 50 µM |
| CCc1ccc(NC(=O)Cn2nc(C(F)(F)F)c3c2CCC3)cc1 [N-(4-Ethyl-phenyl)-2-(3-trifluoromethyl-5,6-dihydro-4H-cyclopentapyrazol-1-yl)-acetamide] | > 50 µM |
| Cc1ccc(NS(=O)(=O)c2ccc(OCC(=O)N3CCOCC3)cc2)cc1 [N-(4-methylphenyl)-4-(2-morpholin-4-yl-2-oxidanylidene-ethoxy)benzenesulfonamide] | > 50 µM |
| CCC1CC2CC(NC(C)=O)C1C2 (stereo not drawn) [N-(5-ethyl-3-bicyclo[2.2.1]heptanyl)ethanamide] | 0.588 µM |

| Compound | IC50 |
| --- | --- |
| Cc1ccc(N(C(=O)c2ccccn2)C2(C(=O)NC3CCCC3)CCCCC2)cc1 [N-[1-(cyclopentylcarbamoyl)cyclohexyl]-N-(4-methylphenyl)pyridine-2-carboxamide] | > 50 µM |
| Cc1ccc(-c2csc(N3CCC(NS(=O)(=O)c4ccc5c(c4)OCCO5)CC3)n2)cc1 [N-[1-[4-(4-methylphenyl)-1,3-thiazol-2-yl]piperidin-4-yl]-2,3-dihydro-1,4-benzodioxine-6-sulfonamide] | > 50 µM |
| COc1ccc(OCC(=O)Nc2cc(-c3nn(C)c(=O)c4ccccc34)ccc2OC)cc1 [N-[2-Methoxy-5-(3-methyl-4-oxo-3,4-dihydro-phthalazin-1-yl)-phenyl]-2-(4-methoxy-phenoxy)-acetamide] | > 50 µM |
| CCOC(=O)N=S(=O)(Oc1ccc([N+](=O)[O-])cc1)c1ccccc1 (stereo not drawn) [N-[(4-nitrophenoxy)-oxo-phenyl--sulfanylidene]carbamic acid ethyl ester] | > 50 µM |
| CN(CCOc1ccccc1)c1ccc(S(=O)(=O)N2CCCCC2)cn1 [N-methyl-N-(2-phenoxyethyl)-5-piperidin-1-ylsulfonylpyridin-2-amine] | > 50 µM |
| Cc1cccc(NC(=O)c2snc3c(=O)[nH]cnc23)c1 [SMR000000702] | > 50 µM |
| CCCN(CCC)C(C(=O)Nc1cccc(OC)c1)c1ccccc1 (stereo not drawn) [SMR000064514] | > 50 µM |
| CCCC(=O)n1nc(-c2ccccc2)nc1SC [SMR000113998] | > 50 µM |
| O=C(Oc1cccc(-n2cnnn2)c1)c1ccco1 [SMR000117840] | 4.06 µM |
| O=C(c1cccc2ccccc12)n1nnc2ccccc21 [SMR000118701] | > 50 µM |
| COC(=O)C(Cc1c[nH]c2ccccc12)NC(C)=O (stereo not drawn) [SMR000121078] | 6.69 µM |
| COCC/N=C1\Sc2nc3c(C)cccc3cc2CN1Cc1ccco1 [SMR000122349] | 0.745 µM |
| COc1cc(C=c2sc3n(c2=O)CCCN=3)ccc1O [SMR000126740] | > 50 µM |
| O=C(c1ccc(F)cc1)N1CCN(C(=O)c2cccnc2)CC1 [SMR000140978] | > 50 µM |
| COC(=O)c1sc(NC(=O)CC(C)C)c(C(=O)OC)c1C [SMR000141040] | > 50 µM |
| Cc1cc(C)n2nc(C(=O)Nc3ccc4c(c3)OCO4)cc2n1 [SMR000144727] | > 50 µM |
| CCc1c(O)nc(SCC(=O)NC(C)(C)C)n(-c2ccccc2)c1=O [SMR000147407] | > 50 µM |
| N#Cc1c(N)nc2c(c1N)=C(N)SC1=NC(=O)CC(c3ccccc3Cl)C=21 (stereo not drawn) [SMR000147835] | > 50 µM |
| CNC(=O)COC(=O)c1[nH]c(C)c(C(C)=O)c1C [SMR000152883] | > 50 µM |
| COc1ccccc1-n1cnnc1SCC(=O)Nc1nc(C)c(Cl)cc1Cl [SMR000153344] | 10.2 µM |
| CCn1c(SCC(=O)c2[nH]c(C)c(C(C)=O)c2C)nnc1-c1ccccc1 [SMR000153346] | 7.44 µM |
| Cc1cnc(C(=O)OCC(=O)NCc2ccccc2)cn1 [[2-(benzylamino)-2-oxoethyl] 5-methylpyrazine-2-carboxylate] | > 50 µM |
| Cc1cc(NC(=O)COC(=O)c2c(C)nn(Cc3ccccc3)c2C)no1 [[2-[(5-methyl-1,2-oxazol-3-yl)amino]-2-oxoethyl] 1-benzyl-3,5-dimethylpyrazole-4-carboxylate] | > 50 µM |
